The numbers were not newly measured in US20130296430A1, “COMPOSITIONS AND METHODS FOR TREATING AUTISM AND AUTISM SPECTRUM DISORDER” (priority 2012, published 2013), which cites them from elsewhere.

For the data set the following is noted: doses less than NAC; effects counter to those reported for NAC; Samstrand et al 1999; cited from earlier work.

In the case of `CC(=O)N[C@@H](CSSC[C@H](NC(C)=O)C(=O)O)C(=O)O` [oxidized form of NAC], the “bioactive dose relative to NAC” value is on record as 10-100 fold.
